Experiments:
[1] = target: Poly [ADP-ribose] polymerase 1 (Homo sapiens, UniProt P09874); test: Inhibition of human PARP1
[2] = target: T1, Sodium-dependent dopamine transporter (Homo sapiens, UniProt Q01959); test: Inhibition of recombinant human dopamine transporter
[3] = target: T2, Sodium-dependent noradrenaline transporter (Homo sapiens, UniProt P23975); test: Inhibition of recombinant human norepinephrine transporter
[4] = Aqueous solubility of the compound at pH 2; type: physicochemical
[5] = Aqueous solubility of the compound at pH 7.4; type: physicochemical
[6] = Apparent permeability across human Caco2 cell membrane; type: ADME, cell-based; conditions: Caco-2
[7] = Mutagenic activity in human peripheral blood lymphocytes by micronucleus test in presence metabolic activation; type: toxicity, cell-based; conditions: lymphocyte
[8] = Mutagenic activity in human peripheral blood lymphocytes by micronucleus test in absence metabolic activation; type: toxicity, cell-based; conditions: lymphocyte
Salmonella typhimurium = test: Mutagenic activity in Salmonella Typhimurium by Ames test; type: toxicity, organism-based; conditions: salmonella enterica subsp. enterica serovar typhimurium
[9] = Mutagenic activity in Salmonella Typhimurium by Ames test in presence of rat liver S9 fraction; type: toxicity, subcellular; conditions: salmonella enterica subsp. enterica serovar typhimurium
Rattus norvegicus [10] = organism: Rattus norvegicus; test: Toxicity in rat up to 28 days; type: organism-based; conditions: in vivo, 672 h
Rhesus monkey [11] = test: Toxicity in monkey up to 28 days; type: organism-based, Macaca mulatta; conditions: in vivo, 672 h
Rhesus monkey [12] = test: Toxicity in monkey assessed as changes in cardiovascular function after 28 days; type: organism-based, Macaca mulatta, Heart; conditions: in vivo, 672 h
Rhesus monkey [13] = test: Toxicity in monkey assessed as changes in respiratory function after 28 days; type: organism-based, Macaca mulatta; conditions: in vivo, 672 h
Rattus norvegicus [14] = test: Inhibition of RAMH-induced dipsogenia in ip dosed Long Evans rat administered 15 mins prior to RAMH challenge; type: functional
Rattus norvegicus [15] = test: Inhibition of RAMH-induced dipsogenia in Long Evans rat administered as po 15 mins prior to RAMH challenge; type: functional
Rattus norvegicus [16] = test: Toxicity in rat central nervous system assessed as changes in behavioral response at 10 to 300 mg/kg, po measured from 15 mins through 6 hrs by Irwin test; type: organism-based; set-up: dose 10-300 mg/kg, route oral; conditions: in vivo
Rattus norvegicus [17] = test: Toxicity in rat central nervous system assessed as side effects up to 100 mg/kg, po measured from 15 mins through 6 hrs by Irwin test; type: organism-based; set-up: dose 100 mg/kg, route oral; conditions: in vivo
[18] = Drug level in rat brain at 100 mg/kg, po administered after 1 hr post dosing; type: ADME, organism-based; set-up: dose 100 mg/kg, route oral; conditions: read-out: Drug uptake
Histamine H3 receptor [19] = target: T3, Histamine H3 receptor (Homo sapiens, UniProt Q9Y5N1); test: Displacement of [3H]NAMH from human histamine H3 receptor expressed in CHO cells; type: cell-based
Histamine H3 receptor [20] = target: T4, Histamine H3 receptor (Rattus norvegicus, UniProt Q9QYN8); test: Displacement of [3H]NAMH from rat histamine H3 receptor expressed in CHO cells; type: cell-based
[21] = Distribution coefficient log D of the compound at pH 7.4; type: physicochemical; conditions: octanol/water
Histamine H3 receptor [22] = target: T4, Histamine H3 receptor; test: Antagonist activity at histamine H3 receptor in rat cortical membrane; type: functional, cell membranes
[23] = Dissociation constant, pKa of the compound; type: physicochemical
Histamine H3 receptor [24] = target: T3, Histamine H3 receptor; test: Inverse agonist activity at human histamine H3 receptor assessed as inhibition of R-alpha-methylhistamine induced [35S]GTPgammaS binding; type: functional
Histamine H3 receptor [25] = target: T4, Histamine H3 receptor; test: Inverse agonist activity at rat histamine H3 receptor assessed as inhibition of R-alpha-methylhistamine induced [35S]GTPgammaS binding; type: functional
[26] = target: Muscarinic acetylcholine receptor M2 (Homo sapiens, UniProt P08172); test: Inhibition of muscarinic M2 receptor
[27] = target: Alpha-1A adrenergic receptor (Homo sapiens, UniProt P35348); test: Inhibition of adrenergic alpha 1A receptor
[28] = target: T1, Sodium-dependent dopamine transporter; test: Inhibition of dopamine transporter
[29] = target: T2, Sodium-dependent noradrenaline transporter; test: Inhibition of norepinephrine transporter
[30] = Inhibition of PDE3

T4 sequence (Q9QYN8 whole entry): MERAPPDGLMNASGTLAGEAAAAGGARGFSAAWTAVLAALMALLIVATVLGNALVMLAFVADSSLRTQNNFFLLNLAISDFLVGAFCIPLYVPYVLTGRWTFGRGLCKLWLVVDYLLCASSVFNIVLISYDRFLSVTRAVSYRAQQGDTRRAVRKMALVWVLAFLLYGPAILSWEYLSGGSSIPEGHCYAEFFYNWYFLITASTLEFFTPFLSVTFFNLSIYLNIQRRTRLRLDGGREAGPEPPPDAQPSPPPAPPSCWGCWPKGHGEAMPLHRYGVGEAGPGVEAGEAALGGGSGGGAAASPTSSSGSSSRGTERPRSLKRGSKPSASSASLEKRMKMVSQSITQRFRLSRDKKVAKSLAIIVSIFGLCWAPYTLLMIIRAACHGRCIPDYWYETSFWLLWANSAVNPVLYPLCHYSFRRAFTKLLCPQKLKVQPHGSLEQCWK
T2 sequence (P23975 whole entry): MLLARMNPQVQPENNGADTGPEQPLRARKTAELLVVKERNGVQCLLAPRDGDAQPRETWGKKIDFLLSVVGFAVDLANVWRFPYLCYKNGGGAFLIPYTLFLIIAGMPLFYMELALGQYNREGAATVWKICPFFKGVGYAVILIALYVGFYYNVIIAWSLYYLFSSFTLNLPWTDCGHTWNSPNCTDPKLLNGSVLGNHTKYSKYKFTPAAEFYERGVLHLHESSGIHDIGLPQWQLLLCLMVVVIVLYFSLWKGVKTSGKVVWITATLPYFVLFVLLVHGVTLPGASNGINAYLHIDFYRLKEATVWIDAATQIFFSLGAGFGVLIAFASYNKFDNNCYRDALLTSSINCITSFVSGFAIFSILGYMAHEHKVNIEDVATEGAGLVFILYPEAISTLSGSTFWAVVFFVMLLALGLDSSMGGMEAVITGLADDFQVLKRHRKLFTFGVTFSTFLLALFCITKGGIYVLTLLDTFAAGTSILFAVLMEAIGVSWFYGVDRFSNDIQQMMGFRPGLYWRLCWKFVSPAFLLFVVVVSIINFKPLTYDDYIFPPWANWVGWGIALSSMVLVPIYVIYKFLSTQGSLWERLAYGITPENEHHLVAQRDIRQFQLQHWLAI
T3 sequence (Q9Y5N1 whole entry): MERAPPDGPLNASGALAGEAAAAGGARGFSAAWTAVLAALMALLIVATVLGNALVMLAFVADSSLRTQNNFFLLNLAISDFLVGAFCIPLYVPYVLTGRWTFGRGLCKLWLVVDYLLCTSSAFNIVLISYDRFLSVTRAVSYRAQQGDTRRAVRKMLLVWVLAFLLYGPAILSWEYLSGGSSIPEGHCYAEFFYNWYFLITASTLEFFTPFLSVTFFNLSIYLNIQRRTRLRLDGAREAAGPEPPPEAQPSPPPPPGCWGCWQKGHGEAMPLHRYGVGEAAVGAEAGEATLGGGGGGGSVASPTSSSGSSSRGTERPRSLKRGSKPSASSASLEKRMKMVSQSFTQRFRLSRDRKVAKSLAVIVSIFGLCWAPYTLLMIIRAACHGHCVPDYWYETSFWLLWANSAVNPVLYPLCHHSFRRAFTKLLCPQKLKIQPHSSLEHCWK
T1 sequence (Q01959 whole entry): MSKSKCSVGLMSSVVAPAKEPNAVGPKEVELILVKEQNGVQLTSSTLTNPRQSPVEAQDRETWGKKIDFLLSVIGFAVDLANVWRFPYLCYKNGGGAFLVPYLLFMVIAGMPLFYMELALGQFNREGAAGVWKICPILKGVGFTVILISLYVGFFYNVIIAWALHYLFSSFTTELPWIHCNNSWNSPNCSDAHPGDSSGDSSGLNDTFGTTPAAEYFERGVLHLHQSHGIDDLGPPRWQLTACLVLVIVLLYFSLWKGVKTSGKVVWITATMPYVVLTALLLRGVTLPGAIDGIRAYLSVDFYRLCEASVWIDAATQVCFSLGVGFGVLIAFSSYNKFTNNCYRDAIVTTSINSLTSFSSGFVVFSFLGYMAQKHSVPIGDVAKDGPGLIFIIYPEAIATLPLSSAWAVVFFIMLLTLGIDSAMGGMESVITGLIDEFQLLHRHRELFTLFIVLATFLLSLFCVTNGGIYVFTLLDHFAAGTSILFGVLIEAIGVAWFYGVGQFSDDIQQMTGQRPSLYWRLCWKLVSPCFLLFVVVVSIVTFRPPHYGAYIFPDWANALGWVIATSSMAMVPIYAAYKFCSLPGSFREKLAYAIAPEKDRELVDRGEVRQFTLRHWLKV
Sequence of Alpha-1A adrenergic receptor (P35348 whole entry): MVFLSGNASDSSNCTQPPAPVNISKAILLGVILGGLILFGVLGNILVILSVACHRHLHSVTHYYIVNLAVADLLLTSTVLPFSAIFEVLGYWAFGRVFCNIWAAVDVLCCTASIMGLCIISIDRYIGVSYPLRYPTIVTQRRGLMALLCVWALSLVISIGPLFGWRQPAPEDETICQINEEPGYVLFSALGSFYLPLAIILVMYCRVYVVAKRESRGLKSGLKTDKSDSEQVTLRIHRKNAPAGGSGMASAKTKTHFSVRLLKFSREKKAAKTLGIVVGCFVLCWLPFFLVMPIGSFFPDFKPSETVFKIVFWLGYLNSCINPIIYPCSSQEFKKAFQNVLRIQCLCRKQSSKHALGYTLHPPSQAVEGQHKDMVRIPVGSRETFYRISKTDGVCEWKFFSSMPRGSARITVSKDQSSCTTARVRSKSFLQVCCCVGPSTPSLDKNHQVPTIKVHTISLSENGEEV
Sequence of Muscarinic acetylcholine receptor M2 (P08172 whole entry): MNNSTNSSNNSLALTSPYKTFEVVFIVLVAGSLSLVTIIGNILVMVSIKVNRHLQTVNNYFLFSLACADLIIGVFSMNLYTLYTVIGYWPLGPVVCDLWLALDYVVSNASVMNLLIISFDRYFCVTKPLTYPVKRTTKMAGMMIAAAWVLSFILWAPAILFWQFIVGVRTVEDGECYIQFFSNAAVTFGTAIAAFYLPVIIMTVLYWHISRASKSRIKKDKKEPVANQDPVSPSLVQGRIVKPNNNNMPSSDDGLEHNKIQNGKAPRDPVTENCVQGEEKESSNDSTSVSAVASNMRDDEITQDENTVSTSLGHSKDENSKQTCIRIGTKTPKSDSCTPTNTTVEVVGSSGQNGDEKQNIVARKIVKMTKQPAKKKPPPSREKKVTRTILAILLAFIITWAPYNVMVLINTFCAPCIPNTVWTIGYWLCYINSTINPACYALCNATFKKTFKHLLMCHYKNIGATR
Sequence of Poly [ADP-ribose] polymerase 1 (P09874 whole entry): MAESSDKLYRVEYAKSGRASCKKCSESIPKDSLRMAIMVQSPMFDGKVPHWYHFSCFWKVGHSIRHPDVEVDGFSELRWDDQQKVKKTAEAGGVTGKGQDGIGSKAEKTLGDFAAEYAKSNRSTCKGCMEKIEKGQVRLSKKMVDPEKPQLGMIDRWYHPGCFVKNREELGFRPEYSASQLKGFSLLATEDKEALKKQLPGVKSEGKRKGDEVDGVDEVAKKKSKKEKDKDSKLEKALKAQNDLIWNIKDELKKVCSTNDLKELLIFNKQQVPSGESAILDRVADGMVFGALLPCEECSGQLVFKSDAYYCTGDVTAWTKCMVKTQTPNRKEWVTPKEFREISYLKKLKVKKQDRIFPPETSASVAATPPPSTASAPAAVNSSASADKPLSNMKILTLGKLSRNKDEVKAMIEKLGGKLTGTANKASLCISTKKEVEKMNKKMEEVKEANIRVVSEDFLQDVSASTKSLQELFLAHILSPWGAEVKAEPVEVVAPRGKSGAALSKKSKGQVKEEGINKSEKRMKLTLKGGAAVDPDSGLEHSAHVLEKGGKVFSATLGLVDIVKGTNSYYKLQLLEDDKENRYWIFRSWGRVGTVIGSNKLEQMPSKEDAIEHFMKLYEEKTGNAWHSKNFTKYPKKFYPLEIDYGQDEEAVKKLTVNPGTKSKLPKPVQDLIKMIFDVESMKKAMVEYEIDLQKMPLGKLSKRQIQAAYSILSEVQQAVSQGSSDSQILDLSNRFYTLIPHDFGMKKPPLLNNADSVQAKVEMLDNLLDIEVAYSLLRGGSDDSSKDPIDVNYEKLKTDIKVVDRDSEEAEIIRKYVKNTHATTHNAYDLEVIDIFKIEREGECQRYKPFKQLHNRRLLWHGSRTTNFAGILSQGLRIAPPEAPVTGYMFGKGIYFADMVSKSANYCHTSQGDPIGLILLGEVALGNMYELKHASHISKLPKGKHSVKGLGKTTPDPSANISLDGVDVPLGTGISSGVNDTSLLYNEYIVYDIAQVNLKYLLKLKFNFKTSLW

IC50 [1]: > 30 µM
IC50 [2]: 9.4 µM
IC50 [3]: 17.5 µM
solubility [4]: > 2000 µg/mL
solubility [5]: > 2000 µg/mL
Papp [6]: 13.5 ×10⁻⁶ cm/s
concentration at 1 h [18]: 36 µM
Ki (Histamine H3 receptor [19]): 2 nM
Ki (Histamine H3 receptor [20]): 7.2 nM
logD [21]: 0.6
Ki (Histamine H3 receptor [22]): 2.7 nM
pKa [23]: 10.2
EC50 (Histamine H3 receptor [24]): 1.1 nM
EC50 (Histamine H3 receptor [25]): 2 nM
Ki [26]: 3.7 µM
Ki [27]: 9.8 µM
Ki [28]: 11 µM
Ki [29]: 10 µM
IC50 [30]: 15 µM
Compound: C[C@@H]1CCCN1CCCOc1ccc(-c2ccc(=O)[nH]n2)cc1 [IRDABISANT]
Activity [7]: Non-toxic
Activity [8]: Non-toxic
Activity (Salmonella typhimurium): Non-toxic
Activity [9]: Non-toxic
Activity (Rattus norvegicus [10]): Non-toxic
Activity (Rhesus monkey [11]): Non-toxic
Activity (Rhesus monkey [12]): Non-toxic
Activity (Rhesus monkey [13]): Non-toxic
ED50 (Rattus norvegicus [14]): 0.06 mg/kg
ED50 (Rattus norvegicus [15]): 0.01 mg/kg
Activity (Rattus norvegicus [16]): Non-toxic
Activity (Rattus norvegicus [17]): Non-toxic

From ChEMBL document CHEMBL1811886 (J Med Chem, 2011)
